Laboratory results: paper PMC11799997 (ACS Omega, 2025)

How the values were obtained:
[1] = Urinary radiometabolite assay in normal mice; type: in vivo, mouse; conditions: for urinary radioactivity with tR consistent with [64Cu]Cu-cyclam-G: pilot, 13.3 MBq/12.4 nmol i.v., RP-HPLC
[2] = system: renal brush border membrane vesicles (RBBMVs); experiment: Enzyme-mediated cleavage assay with RBBMVs; type: in vitro ADME, rat; conditions: 10 mg/mL RBBMVs, 37 °C, TLC; for release of [64Cu]Cu-cyclam-G upon incubation with RBBMVs: 10 min–24 h; for release of radiometabolite-X (% of the radioactivity): 24 h
U87MG tumor-bearing mice = experiment: PET imaging of U87MG tumor-bearing mice; type: in vivo, mouse; conditions: for rate of reduction in renal radioactivity level (PET): from 1 to 24 h p.i.
[3] = Ex vivo biodistribution study in normal mice; set-up: species or system mouse; conditions: 3 to 24 h p.i.
[4] = Whole-body dynamic PET in normal mice; conditions: for RRL relative to [64Cu]Cu-cyclam-RaftRGD / renal radioactivity level (RRL): 57.5 min p.i.; for renal radioactivity level (RRL) / radioactivity in the bladder: 2.92–4.26 MBq/0.3 nmol i.v.; for radioactivity in the bladder: by 1 h p.i.
[5] = system: renal brush border enzymes (RBBMVs); experiment: Enzyme inhibition study of RBBMV-mediated cleavage of the GFK linkage; type: biochemical, rat; conditions: 1 mM inhibitor; for inhibition of release of [64Cu]Cu-cyclam-G from [64Cu]Cu-cyclam-GFK(Bz) / inhibition of release of radiometabolite-X from [64Cu]Cu-cyclam-GFK(Bz): RBBMVs 10 mg/mL, 37 °C, 5 or 24 h, TLC; for inhibition of release of [64Cu]Cu-cyclam-G from [64Cu]Cu-cyclam-GFK(Bz) (pilot): RBBMVs 3 mg/mL, 37 °C overnight, RP-HPLC
[6] = Pilot dynamic PET imaging of [64Cu]Cu-cyclam-G in normal mice

| Compound | urine radioactivity fraction as intact compound ([1]; urine 0–6 h p.i., TLC) | release of [64Cu]Cu-cyclam-G upon incubation with RBBMVs [2] | release of radiometabolite-X (% of the radioactivity) [2] [%] | rate of reduction in renal radioactivity level (PET) (U87MG tumor-bearing mice) [%] | reduction of kidney radioactivity level [3] [%] | reduction of liver radioactivity level [3] [%] | inhibition of release of [64Cu]Cu-cyclam-G from [64Cu]Cu-cyclam-GFK(Bz) [5] | inhibition of release of radiometabolite-X from [64Cu]Cu-cyclam-GFK(Bz) [5] | other results |
| --- | --- | --- | --- | --- | --- | --- | --- | --- | --- |
| O=C(CN1CCCNCCNCCCNCC1)NCC(=O)N[C@@H](Cc1ccccc1)C(=O)N[C@@H](CCCCNC(=O)c1ccccc1)C(=O)O [[^64Cu]Cu-cyclam-GFK(Bz), [^64Cu]Cu-cyclam-GFK(benzoyl [Bz])-OH, metal not drawn] | 67.6 ± 3.4% | released the expected fragment | 43.7 |  |  |  |  |  | urinary radioactivity with tR consistent with [64Cu]Cu-cyclam-G ([1]; mouse urine 10 min p.i.): 5.9%; urinary radioactivity with tR consistent with [64Cu]Cu-cyclam-G ([1]; mouse urine 2 h p.i.): 13.8%; urine radioactivity fraction as [64Cu]Cu-cyclam-G ([1]; urine 0–6 h p.i., TLC): 27.2 ± 2.5% |
| C[C@@H]1NC(=O)[C@H](CCCCNC(=O)CO/N=C/C(=O)NCCCC[C@@H]2NC(=O)[C@@H](Cc3ccccc3)NC(=O)[C@H](CC(=O)O)NC(=O)CNC(=O)[C@H](CCCNC(=N)N)NC2=O)NC(=O)CNC(=O)[C@@H]2CCCN2C(=O)[C@H](CCCCNC(=O)CO/N=C/C(=O)NCCCC[C@@H]2NC(=O)[C@@H](Cc3ccccc3)NC(=O)[C@H](CC(=O)O)NC(=O)CNC(=O)[C@H](CCCNC(=N)N)NC2=O)NC(=O)[C@H](CCCCNC(=O)CCNC(=O)CCNC(=O)CCNC(=O)[C@H](CCCCN)NC(=O)[C@H](Cc2ccccc2)NC(=O)CNC(=O)CN2CCCNCCNCCCNCC2)NC(=O)[C@H](CCCCNC(=O)CO/N=C/C(=O)NCCCC[C@@H]2NC(=O)[C@@H](Cc3ccccc3)NC(=O)[C@H](CC(=O)O)NC(=O)CNC(=O)[C@H](CCCNC(=N)N)NC2=O)NC(=O)CNC(=O)[C@@H]2CCCN2C(=O)[C@H](CCCCNC(=O)CO/N=C/C(=O)NCCCC[C@@H]2NC(=O)[C@@H](Cc3ccccc3)NC(=O)[C@H](CC(=O)O)NC(=O)CNC(=O)[C@H](CCCNC(=N)N)NC2=O)NC1=O [[^64Cu]Cu-cyclam-GFK(βA)3-RaftRGD, metal not drawn] | much lower and poorly defined for quantification | failed to release | 22.9 | 75.6 ± 1.8 | 74.4 | 34 |  |  | urine radioactivity fraction as radiometabolite-X ([64Cu]Cu-cyclam-GF) ([1]; urine 0–6 h p.i., TLC): 69.1 ± 4.5%; tumor uptake (PET) (U87MG tumor-bearing mice; U87MG tumor, 1–24 h p.i.): significantly higher than those of the GFK compound; RRL relative to [64Cu]Cu-cyclam-RaftRGD [4]: 2.57 fold |
| C[C@@H]1NC(=O)[C@H](CCCCNC(=O)CO/N=C/C(=O)NCCCC[C@@H]2NC(=O)[C@@H](Cc3ccccc3)NC(=O)[C@H](CC(=O)O)NC(=O)CNC(=O)[C@H](CCCNC(=N)N)NC2=O)NC(=O)CNC(=O)[C@@H]2CCCN2C(=O)[C@H](CCCCNC(=O)CO/N=C/C(=O)NCCCC[C@@H]2NC(=O)[C@@H](Cc3ccccc3)NC(=O)[C@H](CC(=O)O)NC(=O)CNC(=O)[C@H](CCCNC(=N)N)NC2=O)NC(=O)[C@H](CCCCNC(=O)[C@H](CCCCN)NC(=O)[C@H](Cc2ccccc2)NC(=O)CNC(=O)CN2CCCNCCNCCCNCC2)NC(=O)[C@H](CCCCNC(=O)CO/N=C/C(=O)NCCCC[C@@H]2NC(=O)[C@@H](Cc3ccccc3)NC(=O)[C@H](CC(=O)O)NC(=O)CNC(=O)[C@H](CCCNC(=N)N)NC2=O)NC(=O)CNC(=O)[C@@H]2CCCN2C(=O)[C@H](CCCCNC(=O)CO/N=C/C(=O)NCCCC[C@@H]2NC(=O)[C@@H](Cc3ccccc3)NC(=O)[C@H](CC(=O)O)NC(=O)CNC(=O)[C@H](CCCNC(=N)N)NC2=O)NC1=O [[^64Cu]Cu-cyclam-GFK-RaftRGD, metal not drawn] | 27.7 ± 2.4% | failed to release | 18.2 | 73.0 ± 2.3 | 61.1 | 28.0 |  |  | urine radioactivity fraction as radiometabolite-X ([64Cu]Cu-cyclam-GF) ([1]; urine 0–6 h p.i., TLC): 56.9 ± 2.0%; RRL relative to [64Cu]Cu-cyclam-RaftRGD [4]: 2.98 fold |
| C[C@@H]1NC(=O)[C@H](CCCCNC(=O)CO/N=C/C(=O)NCCCC[C@@H]2NC(=O)[C@@H](Cc3ccccc3)NC(=O)[C@H](CC(=O)O)NC(=O)CNC(=O)[C@H](CCCNC(=N)N)NC2=O)NC(=O)CNC(=O)[C@@H]2CCCN2C(=O)[C@H](CCCCNC(=O)CO/N=C/C(=O)NCCCC[C@@H]2NC(=O)[C@@H](Cc3ccccc3)NC(=O)[C@H](CC(=O)O)NC(=O)CNC(=O)[C@H](CCCNC(=N)N)NC2=O)NC(=O)[C@H](CCCCNC(=O)CN2CCCNCCNCCCNCC2)NC(=O)[C@H](CCCCNC(=O)CO/N=C/C(=O)NCCCC[C@@H]2NC(=O)[C@@H](Cc3ccccc3)NC(=O)[C@H](CC(=O)O)NC(=O)CNC(=O)[C@H](CCCNC(=N)N)NC2=O)NC(=O)CNC(=O)[C@@H]2CCCN2C(=O)[C@H](CCCCNC(=O)CO/N=C/C(=O)NCCCC[C@@H]2NC(=O)[C@@H](Cc3ccccc3)NC(=O)[C@H](CC(=O)O)NC(=O)CNC(=O)[C@H](CCCNC(=N)N)NC2=O)NC1=O [[^64Cu]Cu-cyclam-RaftRGD, [^64Cu]Cu-cyclam-RAFT-c(-RGDfK-)4, metal not drawn] |  |  |  | 43.0 ± 4.5 | 22.8 | 27.0 |  |  |  |
| C[C@H](CS)C(=O)N1CCC[C@H]1C(=O)O [captopril] |  |  |  |  |  |  | partially inhibited | partially inhibited |  |
| CC1(C)C[C@@H]1C(=O)N/C(=C\CCCCSC[C@H](N)C(=O)O)C(=O)O [cilastatin] |  |  |  |  |  |  | not inhibited | not inhibited | inhibition of release of [64Cu]Cu-cyclam-G from [64Cu]Cu-cyclam-GFK(Bz) (pilot) [5]: remained unaffected |
| NC(N)=NCCSCC(CS)C(=O)O (stereo not drawn) [mergetpa] |  |  |  |  |  |  | not inhibited | partially inhibited |  |
| CC(C)C[C@H](NP(=O)(O)O[C@@H]1O[C@@H](C)[C@H](O)[C@@H](O)[C@H]1O)C(=O)N[C@@H](Cc1c[nH]c2ccccc12)C(=O)O [phosphoramidon] |  |  |  |  |  |  | nearly completely inhibited | barely inhibited | inhibition of release of [64Cu]Cu-cyclam-G from [64Cu]Cu-cyclam-GFK(Bz) (pilot) [5]: almost completely inhibited |
| [^64Cu]Cu-cyclam-Gly-OH |  |  |  |  |  |  |  |  | 0–6 h urinary radioactivity levels ([1]; normal mice, 7.4 MBq i.v., group values): 34.7 to 50.9 %ID; renal radioactivity level (RRL) [4]: 1.14 ± 0.15 %ID/g; radioactivity in the bladder [4]: > 70 %ID; reduction of renal uptake from peak ([6]; 1.5 to 57.5 min p.i.): 96.7%; renal uptake peak ([6]; 1.5 min p.i., ~7.4 MBq/2 nmol i.v.): 20.3 ± 2.9 %ID/g; renal uptake ([6]; 57.5 min p.i., ~7.4 MBq/2 nmol i.v.): 0.68 ± 0.02 %ID/g; ID excreted in urine ([6]; within 60 min after injection): more than 70 % of ID |
| [^64Cu]Cu-cyclam-Gly-Phe-OH [[^64Cu]Cu-cyclam-GF] |  |  |  |  |  |  |  |  | renal radioactivity level (RRL) [4]: 1.50 ± 0.81 %ID/g; radioactivity in the bladder [4]: > 70 %ID |
